The record followed here is US8455514B2 (Aerie Pharmaceuticals, Inc., priority 2008, dated 2013).

Assay [1] deals with eyes. Nature of the assay: Topical pharmaceutical composition administered to the eyes as drops (present-tense composition examples). Type of assay: in vivo, patient. Conditions: composition of Example 90 (0.50 wt %); for effect on hyperemia, redness and ocular irritation: drop as needed; for neuroprotective effect: topical drop 4 times per day.
Assay [2] concerns eyes. The assay is described as above. Format: in vivo, patient. Conditions: composition of Example 90 (0.50 wt %). How it is done: (§1) Topical pharmaceutical compositions for lowering intraocular pressure are prepared by conventional methods and formulated as follows: […]
A compound according to this invention is used as the 6- or 7-aminoisoquinoline derivative. When the composition is topically administered to the eyes once or more daily as 40 microliter drops, the above composition decreases intraocular pressure in a patient suffering from glaucoma.

For assay [3], the system named is eyes of a Dutch-belted rabbit. The experiment in a line: Intraocular pressure after a topical drop to the eyes of Dutch-belted rabbits. Conditions: composition of Example 105 (0.30 wt %), 40 microliter drop topically once daily; for decrease of intraocular pressure: in some tests. Format: in vivo. Here is the method: as §1
A pharmaceutical composition was prepared according to Example 105, where the 6-aminoisoquinoline derivative was (R)-2-(dimethylamino)-N-(1-hydroxyisoquinolin-6-yl)-2-(thiophen-3-yl)acetamide hydrochloride (E79). […] In some tests, the intraocular pressure was decreased by greater than 5 mm of mercury.

[4] abbreviates: topical drop twice a day or as needed.

Structures can show the parent of a compound that is named as a salt.

With `O=S(=O)(Nc1ccc2cnccc2c1)C(NC1CCCCC1)c1ccccc1` (stereo not shown) [Example E50], in the assay with eyes [1] (topical drop twice per day), the “effect on allergic symptoms” value is recorded as “substantially decreases allergic symptoms” and the “effect on dry eye syndrome” value is “relieves dry eye syndrome”.

Take `CC(C)C[C@@H](C(=O)Nc1ccc2ccncc2c1)N(C)C(=O)OC(C)(C)C` [Example E87, (S)-tert-butyl 1-(isoquinolin-7-ylamino)-4-methyl-1-oxopentan-2-yl(methyl)carbamate]: the “effect on intraocular pressure” value in the assay on eyes [2] (topical drop 4 times per day) was “substantially decreases intraocular pressure”.

As for `O=C(Nc1ccc2cnccc2c1)[C@@H](c1ccccc1)N1CCNCC1` [Example E40, (R)—N-(isoquinolin-6-yl)-2-phenyl-2-(piperazin-1-yl)acetamide], the “effect on hyperemia, redness and ocular irritation” value with eyes [1] is “substantially decreases hyperemia, redness and ocular irritation”.

`O=C(Nc1ccc2cnccc2c1)[C@@H](c1ccccc1)N1CCCNC1` [Example E41, (R)—N-(isoquinolin-6-yl)-2-phenyl-2-(tetrahydropyrimidin-1(2H)-yl)acetamide]: the “effect on intraocular pressure” value with eyes [2] (setting [4]) is on record as “substantially decreases intraocular pressure”.

With `N[C@@H](C(=O)Nc1ccc2cnccc2c1)c1ccccc1` [Example E2, (R)-2-amino-N-(isoquinolin-6-yl)-2-phenylacetamide dihydrochloride], the neuroprotective effect result with eyes [1] is “serves as a neuroprotective agent”. In the assay on eyes [2] (topical drop 4 times per day), the “effect on intraocular pressure” value was “substantially decreases intraocular pressure”.

Turning to `CN(C)[C@@H](C(=O)Nc1ccc2cnccc2c1)c1ccsc1.Cl` [Example E80, (R)-2-(dimethylamino)-N-(isoquinolin-6-yl)-2-(thiophen-3-yl)acetamide hydrochloride], in assay [3], the “effect on intraocular pressure” value is “substantially decreased intraocular pressure” and the “decrease of intraocular pressure” value is on record as “greater than 5 mm of mercury”.

On to `CN(C)[C@@H](C(=O)Nc1ccc2cnccc2c1)c1ccccc1` [Example E3, (R)-2-(dimethylamino)-N-(isoquinolin-6-yl)-2-phenylacetamide dihydrochloride], for which, in the assay on eyes [1], the “effect on hyperemia, redness and ocular irritation” value was “substantially decreases hyperemia, redness and ocular irritation”. The “effect on intraocular pressure” value with eyes [2] (topical drop twice per day) is given as “substantially decreases intraocular pressure”.

Regarding `CCCN[C@H](C(=O)Nc1ccc2cnccc2c1)C1CCCCC1` [Example E25, (S)-2-cyclohexyl-N-(isoquinolin-6-yl)-2-(propylamino)acetamide], the “effect on intraocular pressure” value with eyes [2] (setting [4]) is “substantially decreases intraocular pressure”.

Consider `CN(C)[C@@H](C(=O)Nc1ccc2c(O)nccc2c1)c1ccsc1` [Example E79, (R)-2-(dimethylamino)-N-(1-hydroxyisoquinolin-6-yl)-2-(thiophen-3-yl)acetamide hydrochloride], for which, in assay [3], the “effect on intraocular pressure” value was “substantially decreased intraocular pressure” and the “decrease of intraocular pressure” value was “greater than 5 mm of mercury”.

For “(R)—N-(isoquinolin-6-yl amino)-2-(methylamino)-2-o-fluorophenyl acetamide dihydrochloride [Example E17]”, the neuroprotective effect entry with eyes [1] was “serves as a neuroprotective agent”. The “effect on intraocular pressure” value with eyes [2] (topical drop 4 times per day) is on record as “substantially decreases intraocular pressure”.

On to `CN[C@@H](CC(C)C)C(=O)Nc1ccc2ccncc2c1` [Example E88, (S)—N-(isoquinolin-7-yl)-4-methyl-2-(methylamino)pentanamide dihydrochloride], for which, in the assay with eyes [2] (topical drop 4 times per day), the “effect on intraocular pressure” value is “substantially decreases intraocular pressure”.

With `Cl.Cl.N[C@@H](C(=O)Nc1ccc2cnccc2c1)C1CCCCC1` [Example E9, (R)—N-(isoquinolin-6-ylamino)-2-amino-2-cyclohexyl acetamide dihydrochloride], the “effect on allergic symptoms” value in the assay with eyes [1] (topical drop as needed) is “substantially decreases allergic symptoms”.

For the compound “(R)—N-(isoquinolin-6-yl-amino)-2-(ethylamino)-2-p-methylphenyl acetamide dihydrochloride [Example E18]”, the “effect on intraocular pressure” value with eyes [2] (topical drop twice per day) was “substantially decreases intraocular pressure”.
